Test results taken from publication PMC3735939, “The low levels of eicosapentaenoic acid in rat brain phospholipids are maintained via multiple redundant mechanisms” (Journal of Lipid Research, 2013).
Several values for one entry are separate records, joined by “and”; a condition that tells them apart may be missing. Identical values can stand only once.

Key:
[1] = Identification of radiolabeled FAs in brain phospholipids by HPLC and LSC after 14C-EPA infusion; type: in vivo, rat; settings: for percent of total radiolabeled FAs: brain total phospholipids;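 on radiolabeled FA composition: percent of radiolabeled FAs within each phospholipid class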
Procedure: (§1) Twenty-four hours postsurgery, a second catheter (iv catheter 24 gauge/0.75 inch, Angiocath™; Becton Dickinson) was implanted into the tail vein where rats received either vehicle or 10 mg/kg of MEP. Ten minutes post injection of vehicle or MEP, the tail vein catheter was connected to a syringe containing radiolabeled ^14C-palmitate (n = 8), ^14C-DHA (n = 6), or ^14C-EPA (n = 7) attached to a computer-controlled variable speed pump (PHD 22/2000; Harvard Apparatus, Holliston, MA). […] Each rat received a dose of 76 μCi ^14C-palmitate, 76 μCi ^14C-DHA, or 78 μCi ^14C-EPA. […] The radiotracer infusions continued until rats were euthanized. The brain was excised and cut sagittally. Both hemispheres were stored at −80°C for radioactive and biochemical analyses. Plasma was isolated from whole blood via microcentrifugation at 6,200 rpm (2,000 g) for 5 min and stored at −80°C. Total lipids from one brain hemisphere and from plasma were extracted by the method of Folch, Lees, and Sloane Stanley ([39]). Isolation of various neutral lipid and phospholipid classes from the total lipid extract was previously described by Chen, Liu, and Bazinet ([6]). FA methyl esters and radioactive acyl-CoA analysis were previously described by Chen, Liu, and Bazinet ([6]).

[2] = tested on: mitochondrial FA β-oxidation; test: Radioactivity in brain aqueous fraction (marker of β-oxidation) after 5 min intravenous 14C-tracer infusion; type: in vivo, rat; settings: vehicle injection; 5 min iv infusion of tracer
Procedure: as §1, with “([6]).” for “([6]). FA methyl esters and radioactive acyl-CoA analysis were previously described by Chen, Liu, and Bazinet ([6]).”

[3] = In vivo kinetics of FA incorporation and turnover in brain phospholipids (intravenous radiotracer infusion, kinetic model); set-up: species or system rat
Procedure: Twenty-four hours postsurgery, a second catheter (iv catheter 24 gauge/0.75 inch, Angiocath™; Becton Dickinson) was implanted into the tail vein where rats received either vehicle or 10 mg/kg of MEP. […] The radiotracers were infused for 5 min via the tail vein catheter at a rate of 0.223(1 + e^−19.2t) ml/min (t is infusion time in minutes) ([37]) which achieves a steady-state plasma radioactivity within 1 min ([18], [38]). […] During the 5 min infusion, blood samples were collected from the jugular vein at approximately 0, 0.25, 0.5, 0.75, 1.5, 3, 4, and 5 min while the unanesthetized rat was mobile in the infusion box with food and water. […] After 5 min, the rats were rapidly euthanized by head-focused high-energy microwave irradiation (13.5 kW for 1.6 s; Cober Electronics Inc., Stratford, CT). The radiotracer infusions continued until rats were euthanized. The brain was excised and cut sagittally. Both hemispheres were stored at −80°C for radioactive and biochemical analyses. Plasma was isolated from whole blood via microcentrifugation at 6,200 rpm (2,000 g) for 5 min and stored at −80°C.
The model for in vivo kinetics of brain FAs in rats has been previously described ([17], [18], [21], [23], [25], [37], [41]).
Because the infusion is 5 min, contributions of FA from de novo synthesis and esterified plasma FA are negligible ([18], [20], [23], [41]); thus only contributions from plasma unesterified FAs and acyl-CoA pools were considered in the calculation of λpalmitate, DHA, or EPA .

[4] = cited from earlier work
[5] = cited from earlier work; remark: listed apart in the source

radiolabeled FA composition ([1]; ChoGpl, MEP-treated rats): 4%
radiolabeled FA composition ([1]; ChoGpl, vehicle-treated rats): 11%
radiolabeled FA composition ([1]; EtnGpl, MEP-treated rats): 14%
radiolabeled FA composition ([1]; EtnGpl, vehicle-treated rats): 29%
percent of total radiolabeled FAs ([1]; MEP-treated rats): 3%
percent of total radiolabeled FAs ([1]; vehicle-treated rats): 10%
radioactivity of brain aqueous fraction [2]: 17 nCi/g brain
FFA rate of turnover ([3]; ChoGpl, MEP): 90 ± 20 %/day
JFA net incorporation rate from brain acyl-CoA ([3]; ChoGpl, MEP): 1,234 ± 344 nmol/g/day
Jin net incorporation rate from plasma unesterified FA ([3]; ChoGpl, MEP): 4.3 ± 0.38 nmol/g/day
FFA rate of turnover ([3]; ChoGpl, Vehicle): 150 ± 14 %/day
JFA net incorporation rate from brain acyl-CoA ([3]; ChoGpl, Vehicle): 2,146 ± 225 nmol/g/day
Jin net incorporation rate from plasma unesterified FA ([3]; ChoGpl, Vehicle): 5.2 ± 0.62 nmol/g/day
FFA rate of turnover ([3]; EtnGpl, MEP): 37 ± 9.6 %/day
JFA net incorporation rate from brain acyl-CoA ([3]; EtnGpl, MEP): 2,030 ± 492 nmol/g/day
Jin net incorporation rate from plasma unesterified FA ([3]; EtnGpl, MEP): 7.2 ± 1.2 nmol/g/day
FFA rate of turnover ([3]; EtnGpl, Vehicle): 55 ± 5.4 %/day
JFA net incorporation rate from brain acyl-CoA ([3]; EtnGpl, Vehicle): 3,233 ± 184 nmol/g/day
Jin net incorporation rate from plasma unesterified FA ([3]; EtnGpl, Vehicle): 7.9 ± 1.4 nmol/g/day
FFA rate of turnover ([3]; PtdIns, MEP): 308 ± 105 %/day
JFA net incorporation rate from brain acyl-CoA ([3]; PtdIns, MEP): 477 ± 106 nmol/g/day
Jin net incorporation rate from plasma unesterified FA ([3]; PtdIns, MEP): 1.7 ± 0.3 nmol/g/day
FFA rate of turnover ([3]; PtdIns, Vehicle): 458 ± 156 %/day
JFA net incorporation rate from brain acyl-CoA ([3]; PtdIns, Vehicle): 688 ± 144 nmol/g/day
Jin net incorporation rate from plasma unesterified FA ([3]; PtdIns, Vehicle): 1.8 ± 0.078 nmol/g/day
FFA rate of turnover ([3]; PtdSer, MEP): 8.4 ± 3.1 %/day
JFA net incorporation rate from brain acyl-CoA ([3]; PtdSer, MEP): 198 ± 79 nmol/g/day
Jin net incorporation rate from plasma unesterified FA ([3]; PtdSer, MEP): 0.68 ± 0.11 nmol/g/day
FFA rate of turnover ([3]; PtdSer, Vehicle): 9.2 ± 2.1 %/day
JFA net incorporation rate from brain acyl-CoA ([3]; PtdSer, Vehicle): 237 ± 50 nmol/g/day
Jin net incorporation rate from plasma unesterified FA ([3]; PtdSer, Vehicle): 0.56 ± 0.053 nmol/g/day
FFA rate of turnover ([3]; Total PL, MEP): 51 ± 10 %/day
JFA net incorporation rate from brain acyl-CoA ([3]; Total PL, MEP): 4,390 ± 988 nmol/g/day
Jin net incorporation rate from plasma unesterified FA ([3]; Total PL, MEP): 16 ± 1.2 nmol/g/day
FFA rate of turnover ([3]; Total PL, Vehicle): 75 %/day and 75 ± 7.7 %/day
JFA net incorporation rate from brain acyl-CoA ([3]; Total PL, Vehicle): 7,259 ± 958 nmol/g/day
Jin net incorporation rate from plasma unesterified FA ([3]; Total PL, Vehicle): 17 nmol/g/day and 17 ± 1.8 nmol/g/day
Jin, percent lower than reported Jin ([3]; rat, in vivo): 89–91%
fold difference in λ between DHA and EPA ([3]; rat, in vivo): 50 fold
λ dilution factor ([3]; vehicle): 0.0024 ± 0.0003
FFA into brain total phospholipids, fold higher than EPA ([3]; vehicle injection): 4 fold
Jin into brain total phospholipids, fold higher than EPA ([3]; vehicle injection): 3 fold
t1/2, fold lower than EPA ([3]; vehicle injection): 4 fold
Structure (SMILES): CC/C=C\C/C=C\C/C=C\C/C=C\C/C=C\C/C=C\CCC(=O)O [DHA, docosahexaenoic acid]
Jout net rate of loss from brain phospholipids [4]: 58 to 257 nmol/g/day
loss t1/2 from brain phospholipids [4]: 33 days
rate of loss from brain phospholipids [4]: 2 % per day
Jin, reported [5]: 150 to 190 nmol/g/day
